The source of these data is patent US9249131B2, “Modulators of ATP-binding cassette transporters” (Vertex Pharmaceuticals Incorporated, priority 2003, dated 2016).

For this test, the target named is T1, ΔF508-CFTR (Homo sapiens, UniProt P13569, DEL508-508).
T1 construct: expressed in transfected cells; host or cells: NIH3T3 mouse fibroblasts stably expressing ΔF508-CFTR for the optical, whole-cell and single-channel assays; Fisher rat epithelial (FRT) cells for Ussing chamber follow-up
Put plainly: Assays for ΔF508-CFTR correction and potentiator properties (membrane potential optical and electrophysiological methods). Format: cell-based. The settings on record: CFTR modulation; for % Activity: % Efficacy; for EC50: tested using the above methods. The essentials:
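NIH3T3 mouse fibroblasts stably expressing ΔF508-CFTR were used, with membrane potential read by DiSBAC2(3)/CC2-DMPE FRET on VIPR. Correctors: 16 h compound exposure at 37 °C, then activation with forskolin plus genistein in Cl⁻-free medium. Potentiators: cells held 24 h at 27 °C, compound added in Cl⁻-free medium, 2-10 μM forskolin 22 s later (final Cl⁻ 28 mM).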

SMILES strings stand for the structures.

T1 sequence (P13569 with tags, fused parts or gaps DEL508-508): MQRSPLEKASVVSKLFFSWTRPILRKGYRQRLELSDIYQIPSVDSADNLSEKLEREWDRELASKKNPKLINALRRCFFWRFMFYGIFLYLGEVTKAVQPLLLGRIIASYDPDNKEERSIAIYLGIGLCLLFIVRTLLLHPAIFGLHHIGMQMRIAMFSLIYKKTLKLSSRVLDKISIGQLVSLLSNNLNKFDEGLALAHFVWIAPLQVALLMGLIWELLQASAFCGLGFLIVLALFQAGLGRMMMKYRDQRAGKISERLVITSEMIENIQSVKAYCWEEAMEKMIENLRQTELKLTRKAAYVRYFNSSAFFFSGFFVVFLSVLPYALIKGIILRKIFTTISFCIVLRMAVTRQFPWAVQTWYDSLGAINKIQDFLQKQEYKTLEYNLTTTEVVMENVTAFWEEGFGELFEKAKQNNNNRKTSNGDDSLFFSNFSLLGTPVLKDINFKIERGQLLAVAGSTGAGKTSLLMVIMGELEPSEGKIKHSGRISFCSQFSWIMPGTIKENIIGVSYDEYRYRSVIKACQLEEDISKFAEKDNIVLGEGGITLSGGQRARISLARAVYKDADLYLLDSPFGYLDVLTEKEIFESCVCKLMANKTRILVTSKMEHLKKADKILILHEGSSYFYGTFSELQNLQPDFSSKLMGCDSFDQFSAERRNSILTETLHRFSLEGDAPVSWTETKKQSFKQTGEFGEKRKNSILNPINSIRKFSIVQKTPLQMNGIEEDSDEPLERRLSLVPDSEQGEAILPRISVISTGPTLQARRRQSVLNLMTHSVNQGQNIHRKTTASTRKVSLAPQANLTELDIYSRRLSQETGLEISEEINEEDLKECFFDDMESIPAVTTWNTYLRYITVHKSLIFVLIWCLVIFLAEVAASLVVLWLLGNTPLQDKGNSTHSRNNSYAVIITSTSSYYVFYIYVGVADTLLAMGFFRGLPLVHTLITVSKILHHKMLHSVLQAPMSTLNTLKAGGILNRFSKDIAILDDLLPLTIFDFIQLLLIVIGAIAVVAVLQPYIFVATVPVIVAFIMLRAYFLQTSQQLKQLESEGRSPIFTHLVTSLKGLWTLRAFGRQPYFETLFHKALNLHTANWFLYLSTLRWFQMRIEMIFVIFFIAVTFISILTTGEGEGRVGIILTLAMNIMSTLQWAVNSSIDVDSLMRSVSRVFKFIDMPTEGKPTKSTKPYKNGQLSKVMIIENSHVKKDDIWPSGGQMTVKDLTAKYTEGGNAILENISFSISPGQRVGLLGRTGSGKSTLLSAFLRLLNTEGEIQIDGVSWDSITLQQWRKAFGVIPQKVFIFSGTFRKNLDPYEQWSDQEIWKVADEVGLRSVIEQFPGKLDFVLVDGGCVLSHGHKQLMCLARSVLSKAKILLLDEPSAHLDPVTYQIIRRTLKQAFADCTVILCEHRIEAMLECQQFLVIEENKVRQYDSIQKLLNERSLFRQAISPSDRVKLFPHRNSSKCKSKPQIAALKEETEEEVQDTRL

Regarding `COc1cccc(C(=O)Nc2nc(-c3ccccc3)c(-c3ccccc3)s2)c1` [compound 105], the “% Activity” value is on record as “+++ (“+++” means >100%)” and the 50% effective concentration (EC50) is less than 10 µM.

Regarding `O=C(Nc1nc(-c2ccccc2)c(-c2ccccc2)s1)c1cccc(Cl)c1` [compound 106], the “% Activity” value was “++ (“++” means between 25% to 100%)” and the EC50 is less than 10 µM.

On to `O=C(Cc1ccccc1)Nc1nc(-c2ccccc2)c(-c2ccccc2)s1` [compound 107], for which the “% Activity” value is recorded as “+++ (“+++” means >100%)” and the EC50 is less than 10 µM.

Regarding `CCCC(=O)Nc1nc(-c2ccccc2)c(-c2ccccc2)s1` [compound 108], the “% Activity” value is “++ (“++” means between 25% to 100%)” and the EC50 is less than 10 µM.

As to `CC(C)C(=O)Nc1nc(-c2ccccc2)c(-c2ccccc2)s1` [compound 109], the “% Activity” value was “++ (“++” means between 25% to 100%)” and the 50% effective concentration (EC50) is less than 10 µM.

Take `CC(C)CC(=O)Nc1nc(-c2ccccc2)c(-c2ccccc2)s1` [compound 110]: the “% Activity” value is recorded as “+++ (“+++” means >100%)” and the concentration giving a half-maximal response (EC50) was less than 10 µM.

Take `O=C(Nc1nc(-c2ccccc2)c(-c2ccccc2)s1)C1CC1` [compound 111]: the “% Activity” value was “+++ (“+++” means >100%)” and the concentration for a half-maximal effect (EC50) is less than 10 µM.

`CC(C)(C)C(=O)Nc1nc(-c2ccccc2)c(-c2ccccc2)s1` [compound 112]: the “% Activity” value was “++ (“++” means between 25% to 100%)” and the EC50 is less than 10 µM.

Consider `O=C(Nc1nc(-c2ccccc2)c(-c2ccccc2)s1)C1CCCC1` [compound 113], for which the “% Activity” value was “++ (“++” means between 25% to 100%)” and the 50% effective concentration (EC50) is less than 10 µM.

On to `O=C(Nc1nc(-c2ccccc2)c(-c2ccccc2)s1)C1CCCCC1` [compound 114], for which the “% Activity” value is on record as “++ (“++” means between 25% to 100%)” and the EC50 is less than 10 µM.

In the case of `O=C(Nc1nc(-c2ccccc2)c(-c2ccccc2)s1)C1CCCO1` (stereo not shown) [compound 115], the “% Activity” value is “+++ (“+++” means >100%)” and the EC50 is less than 10 µM.

For the compound `O=C(Nc1nc(-c2ccccc2)c(-c2ccccc2)s1)C1CCOC1` (stereo not shown) [compound 116], the “% Activity” value is recorded as “++ (“++” means between 25% to 100%)” and the concentration for a half-maximal effect (EC50) is less than 10 µM.

In the case of `O=C(Nc1ncc(Cc2ccc(Cl)cc2)s1)C(c1ccccc1)C1CCCCC1` (stereo not shown) [compound 117], the “% Activity” value was “+++ (“+++” means >100%)” and the half-maximal effective concentration (EC50) was less than 10 µM.

Regarding `O=C(Nc1ncc(Cc2ccc(Cl)cc2)s1)C(c1ccc(Cl)cc1)c1ccc(Cl)cc1` [compound 118], the “% Activity” value is “++ (“++” means between 25% to 100%)” and the EC50 was less than 10 µM.

With `CC(C(=O)Nc1ncc(Cc2ccc(Cl)cc2)s1)c1ccccc1` (stereo not shown) [compound 119], the “% Activity” value is on record as “+++ (“+++” means >100%)” and the 50% effective concentration (EC50) was less than 10 µM.

With `CCC(C(=O)Nc1ncc(Cc2ccc(Cl)cc2)s1)c1ccccc1` (stereo not shown) [compound 120], the “% Activity” value is “++ (“++” means between 25% to 100%)” and the EC50 is less than 10 µM.

On to `CCC(C)C(C(=O)Nc1ncc(Cc2ccc(Cl)cc2)s1)c1ccccc1` (stereo not shown) [compound 121], for which the “% Activity” value is listed as “+++ (“+++” means >100%)” and the EC50 was less than 10 µM.

As to `O=C(Nc1ncc(Cc2ccc(Cl)cc2)s1)C(c1ccccc1)C1CCCC1` (stereo not shown) [compound 122], the “% Activity” value was “+++ (“+++” means >100%)” and the 50% effective concentration (EC50) was less than 10 µM.

As to `CC(C)C(C(=O)Nc1ncc(Cc2ccc(Cl)cc2)s1)c1ccccc1` (stereo not shown) [compound 123], the “% Activity” value is given as “+++ (“+++” means >100%)” and the 50% effective concentration (EC50) is less than 10 µM.

As for `O=C(Nc1ncc(Cc2cccc(Cl)c2)s1)C(c1ccccc1)c1ccccc1` [compound 124], the “% Activity” value was “++ (“++” means between 25% to 100%)” and the 50% effective concentration (EC50) was less than 10 µM.

`O=C(Nc1ncc(Cc2cccc(Cl)c2)s1)C(c1ccc(Cl)cc1)c1ccc(Cl)cc1` [compound 125]: the “% Activity” value is listed as “++ (“++” means between 25% to 100%)” and the concentration giving a half-maximal response (EC50) was less than 10 µM.

Take `O=C(Nc1ncc(Cc2cccc(Cl)c2)s1)C1Cc2ccccc21` (stereo not shown) [compound 126]: the “% Activity” value is “++ (“++” means between 25% to 100%)” and the EC50 fell in the range of 25 to 60 µM.

For `CC(C(=O)Nc1ncc(Cc2cccc(Cl)c2)s1)c1ccccc1` (stereo not shown) [compound 127], the “% Activity” value is given as “++ (“++” means between 25% to 100%)” and the EC50 is less than 10 µM.

With `CCC(C(=O)Nc1ncc(Cc2cccc(Cl)c2)s1)c1ccccc1` (stereo not shown) [compound 128], the “% Activity” value is “+++ (“+++” means >100%)” and the 50% effective concentration (EC50) was less than 10 µM.

`CCC(C)C(C(=O)Nc1ncc(Cc2cccc(Cl)c2)s1)c1ccccc1` (stereo not shown) [compound 129]: the “% Activity” value is given as “++ (“++” means between 25% to 100%)” and the concentration for a half-maximal effect (EC50) was less than 10 µM.

As to `CC(C)C(C(=O)Nc1ncc(Cc2cccc(Cl)c2)s1)c1ccccc1` (stereo not shown) [compound 130], the “% Activity” value is listed as “+++ (“+++” means >100%)” and the EC50 was less than 10 µM.

On to `O=C(Nc1ncc(Cc2cccc(Cl)c2)s1)C1c2ccccc2Oc2ccccc21` [compound 131], for which the “% Activity” value is “+++ (“+++” means >100%)” and the EC50 was less than 10 µM.

As to `COc1ccccc1Cc1cnc(NC(=O)C(c2ccccc2)C2CCCCC2)s1` (stereo not shown) [compound 132], the “% Activity” value is given as “++ (“++” means between 25% to 100%)” and the EC50 is less than 10 µM.

On to `COc1ccccc1Cc1cnc(NC(=O)C2c3ccccc3-c3ccccc32)s1` [compound 133], for which the “% Activity” value is on record as “++ (“++” means between 25% to 100%)” and the EC50 was less than 10 µM.

`COc1ccccc1Cc1cnc(NC(=O)C(c2ccc(Cl)cc2)c2ccc(Cl)cc2)s1` [compound 134]: the “% Activity” value is on record as “++ (“++” means between 25% to 100%)” and the concentration giving a half-maximal response (EC50) was less than 10 µM.

Take `COc1ccccc1Cc1cnc(NC(=O)C(C)c2ccccc2)s1` (stereo not shown) [compound 135]: the “% Activity” value is recorded as “++ (“++” means between 25% to 100%)” and the concentration for a half-maximal effect (EC50) is less than 10 µM.

Take `CCC(C(=O)Nc1ncc(Cc2ccccc2OC)s1)c1ccccc1` (stereo not shown) [compound 136]: the “% Activity” value is on record as “++ (“++” means between 25% to 100%)” and the EC50 is less than 10 µM.

For the compound `CCC(C)C(C(=O)Nc1ncc(Cc2ccccc2OC)s1)c1ccccc1` (stereo not shown) [compound 137], the “% Activity” value is reported as “++ (“++” means between 25% to 100%)” and the concentration giving a half-maximal response (EC50) was less than 10 µM.

In the case of `COc1ccccc1Cc1cnc(NC(=O)C(c2ccccc2)C(C)C)s1` (stereo not shown) [compound 138], the “% Activity” value was “++ (“++” means between 25% to 100%)” and the concentration for a half-maximal effect (EC50) is less than 10 µM.

Regarding `O=C(Nc1ncc(Cc2ccccc2)s1)C(c1ccccc1)C1CCCCC1` (stereo not shown) [compound 139], the “% Activity” value is “++ (“++” means between 25% to 100%)” and the concentration for a half-maximal effect (EC50) was less than 10 µM.

`COc1ccccc1Cc1cnc(NC(=O)C2c3ccccc3Oc3ccccc32)s1` [compound 140]: the “% Activity” value is on record as “++ (“++” means between 25% to 100%)” and the EC50 was less than 10 µM.

Consider `O=C(Nc1ncc(Cc2ccccc2)o1)c1ccccc1` [compound 141], for which the “% Activity” value is recorded as “++ (“++” means between 25% to 100%)” and the half-maximal effective concentration (EC50) fell in the range of 10 to 25 µM.

Regarding `O=C(Nc1ncc(Cc2ccc(Cl)cc2)o1)C(c1ccccc1)C1CCCCC1` (stereo not shown) [compound 142], the “% Activity” value is “++ (“++” means between 25% to 100%)” and the EC50 was less than 10 µM.
